The nature of series [1]: Multiple-dose (successive i.g.) plasma pharmacokinetics. The class given is in vivo, SD rats. The following applies: for Cmax / AUC(0-inf) / AUC(0-t) / Tmax / MRT last / Vd/F / half-life: SD, rat, plasma, po; for MRT last: read-out: MRT0–t; for Vd/F: read-out: Vz/F; for half-life: read-out: t1/2z (converted). On the procedure: Pharmacokinetic studies of verticinone after intravenous (i.v.) and intragastrical (i.g.) administration to rats were designed to determine pharmacokinetic parameters and absolute bioavailability. For i.g administration, verticinone was suspended in 0.5% carboxymethyl cellulose sodium (CMC-Na) to final concentrations of 0.2, 0.4 and 0.8 mg/mL. Verticinone was dissolved in 20% ethanol/80% water to final concentration of 0.08 mg/mL for i.v. administration. For the i.v. group, five male and five female rats received a single dose of 0.4 mg/kg. Blood samples (0.25 mL) were obtained at 0, 4, 15, 30, 45, 60, 120, 240, 360, 480, 600 and 720 min after injection. For the single- i.g. group, fifteen male and fifteen female rats were divided into three groups, and each group received a single oral dose of 1, 2 and 4 mg/kg of verticinone, respectively. In addition, another five male and five female rats received multiple oral doses of 4 mg/kg/day, given as 2 mg/kg doses twice a day (one dose in the morning and the second dose 12 h later) for 7 days, then a single oral dose of 2 mg/kg on the eighth day. Blood samples (0.25 mL) were obtained at 0, 5, 15, 30, 45, 60, 90, 120, 240, 360, 480 and 720 min for male rats and at 0, 5, 10, 20, 30, 45, 60, 120, 240, 360, 480 and 720 min for female rats after oral administration (the eighth day for multiple-dose group). Blood samples were then centrifuged at 4000 rpm for 10 min, and the plasma was collected. All plasma samples were frozen and stored at −20 °C until analysis. Verticinone was isolated from plasma by liquid-liquid extraction according to our previously reported procedure.
The quantification of verticinone was performed by a LC-MS method based on the previously reported method with slight modifications. The liquid chromatography system consisted of a model 2010 chromatograph (Shimadzu, Kyoto, Japan) equipped with a Shim-Pack VP-ODS C18 column (150 mm × 2.0 mm, 5 μm). A Shimadzu 2010 mass spectrometer (Q-array-Octapole-Quadrupole mass analyzer) equipped with an electrospray ionization interface was used for MS detection. The mobile phase consisted of (A) distilled water and (B) methanol, and the flow rate was 0.2 mL/min. Chromatography separation was achieved using a gradient elution program, as follows: 0.03→6.0 min, B% 15→85; 6.0→7.0 min, B% 85→85; 7.0→8.0 min, B% 85→15; 8.0–12.0 min, B% 15→15. The column and autosampler tray temperature were kept constant at 35 °C and 20 °C, respectively. For the determination of verticinone, the positive mode was selected, along with the conditions as follows.
CDL voltage […], probe voltage 4.5 kV, CDL temperature 250 °C, block temperature 200 °C, gas flow 1.5 L/min. Hupehenine was used as the internal standard (IS). Both verticinone and IS were detected using selected ion monitoring (SIM) at m/z 430.25 for verticinone and m/z 416.30 for hupehenine (IS), with a dwell time of 200 ms. Blank plasma, tissue homogenate, urine, feces homogenate and bile were used to prepare the corresponding calibration curves to avoid different matrix effects.
The pharmacokinetic parameters were calculated by the DAS 2.0 software (Chinese Pharmacological Association, Beijing, China) using a standard non-compartmental method. The Cmax and Tmax were determined from the observed data. The elimination rate constant (ke) was calculated by log-linear regression of verticinone concentrations during the terminal elimination phase and the half-life (t1/2) was calculated as 0.693/ke. The AUC0–t was calculated by the linear trapezoidal method. The AUC0–∞ was calculated as the sum of AUC0–t and the extrapolated part determined by Clast/ke. The total clearance (CL) was calculated as dose/AUC0–∞. The absolute bioavailability (F) was calculated by the following equation: F = [(AUCi.g./AUCi.v.) × (Dosei.v./Dosei.g.)] × 100%. The results were expressed as mean ± SD. Statistical analyses were performed using an unpaired Student’s t-test.

On the set-up of series [2]: method as in PMID 19417735. Particulars: mice; cited from earlier work.
Series [3] can be described thus: Plasma protein binding in vitro by ultrafiltration, rat plasma. It counts as in vitro ADME, rats. As to the method: The ability of verticinone to bind to plasma protein was determined by the ultrafiltration method. A Centrifree Micropartition device (Millipore, Beverly, MA, USA) was used to separate unbound and bound verticinone. Verticinone of different concentrations were added into blank rat and human plasma to give final concentrations at 5, 30 and 100 ng/mL. The spiked plasma was incubated for 30 min at 37 °C and an aliquot (100 μL) was analyzed by previously described methods to determine the total concentration of verticinone. The ultrafiltrate was obtained by centrifuging at 14,000 rpm for 10 min. The concentration of unbound verticinone in filtrate was similarly determined by the previously described methods. The percentage of free fraction (p) of verticinone was calculated as follow: p = (concentration of verticinone in ultrafiltrate/concentration of verticinone in original spiked plasma sample) × 100%.

[4] abbreviates: successive i.g. 2 mg/kg, female rats.
Where [5] appears, read: successive i.g. 2 mg/kg, male rats.

Each structure is given as a SMILES string. Like-named read-outs stand apart in the source and are kept apart here.

As to `C[C@H]1CC[C@@H]2N(C1)C[C@H]1[C@@H]3C[C@H]4[C@@H](CC(=O)[C@H]5C[C@@H](O)CC[C@@]54C)[C@@H]3CC[C@@H]1[C@]2(C)O` [verticinone, Verticinone], in series [1] (successive i.g. 2 mg/kg (twice a day for 7 days, then single dose on eighth day), female rats), the Cmax (in general, the peak of the concentration-time curve) stood at 19.9 ± 14 ng/mL. For the same compound, in series [1] (setting [4]), the AUC(0-inf) (usually the area under the concentration-time curve extrapolated to infinity) turned out to be 43.4 ± 12 ng·h/mL; the AUC(0-t) – broadly, the area under the concentration-time curve up to a stated or last time point – was 36.1 ± 15.2 ng·h/mL; the Tmax – broadly, the time at which the peak concentration occurs – turned out to be 0.38 ± 0.22 h; the MRT last turned out to be 2.24 ± 0.28 h. Further, in series [1] (setting [4]), the Vd/F was determined as 485 ± 499 L/kg and the half-life was 5.94 ± 4.84 h. Moreover, in series [1] (setting [5]), the AUC(0-inf) came out at 455 ± 125 ng·h/mL, the AUC(0-t) stood at 439 ± 126 ng·h/mL, the peak level (Cmax) was 119 ± 26.8 ng/mL and the Tmax came to 0.8 ± 0.21 h. In series [1] (setting [5]), the MRT last worked out at 2.98 ± 0.3 h, the Vd/F worked out at 13.8 ± 4.07 L/kg and the half-life is 2.08 ± 0.51 h. In addition, in series [1] (female rats, 2 mg/kg), the “AUC, fold higher after successive i.g. than single i.g.” value was “approximately 2 fold”; the “CL, fold lower after successive i.g. than single i.g.” value is on record as 2 fold; the “Cmax, fold higher after successive i.g. than single i.g.” value is “approximately 2 fold”. In series [2], the addictive effect entry was “no addictive effect”. The fraction unbound at 30 min, 5 ng/mL in series [3] (rat plasma, 5 ng/mL, ultrafiltration, n = 4, read-out: Protein binding rates (%) (converted)) was 0.087. Also, the fraction unbound at 30 min, 30 ng/mL in series [3] (rat plasma, 30 ng/mL, ultrafiltration, n = 4, read-out: Protein binding rates (%)) amounted to 0.09. Moreover, the fraction unbound at 30 min, 100 ng/mL in series [3] (rat plasma, 100 ng/mL, ultrafiltration, n = 4, read-out: Protein binding rates (%) (converted)) was 0.102. Besides, in series [3] (rat, plasma, rats, concentration range 5~100 ng/mL), the fraction unbound at 30 min was 0.087 to 0.102.

(Values after paper PMC6271218, “Pharmacokinetics, Tissue Distribution and Excretion of Verticinone from F. hupehensis in Rats” (Molecules, 2014).)
